From patent US10100097B2, “GIP-GLP-1 dual agonist compounds and methods” (Zealand Pharma A/S, priority 2012, dated 2018)
Numbered stars: 1 amine (or outer) side, 2 acyl side, 3 side chain; on linkers, the order of the positions; unused ones are H or OH. Square brackets hold non-standard residues; d marks the D form. Side chains are listed from the residue outwards. Peptide text beside a SMILES is read from it. * marks the point of attachment. γGlu = O=C(O)[C@H](CCC(=O)[*:2])N[*:1]; Palmitoyl = CCCCCCCCCCCCCCCC(=O)*; Aib = CC(C)(N)C(=O)O

These compounds were tested against T1, human GLP-1 R (Homo sapiens, UniProt P43220) (assay: Human GLP-1 receptor (GLP-1 R) activity assay, cAMP induction (AlphaScreen cAMP kit)). Conditions: HEK293 cells expressing the human GLP-1 R, 15 min at 37° C., average values of multiple determinations, read-out: GLP1 R (EC50 in nM).
T1 construct: expressed in transfected cells
T1 sequence (P43220 24-463): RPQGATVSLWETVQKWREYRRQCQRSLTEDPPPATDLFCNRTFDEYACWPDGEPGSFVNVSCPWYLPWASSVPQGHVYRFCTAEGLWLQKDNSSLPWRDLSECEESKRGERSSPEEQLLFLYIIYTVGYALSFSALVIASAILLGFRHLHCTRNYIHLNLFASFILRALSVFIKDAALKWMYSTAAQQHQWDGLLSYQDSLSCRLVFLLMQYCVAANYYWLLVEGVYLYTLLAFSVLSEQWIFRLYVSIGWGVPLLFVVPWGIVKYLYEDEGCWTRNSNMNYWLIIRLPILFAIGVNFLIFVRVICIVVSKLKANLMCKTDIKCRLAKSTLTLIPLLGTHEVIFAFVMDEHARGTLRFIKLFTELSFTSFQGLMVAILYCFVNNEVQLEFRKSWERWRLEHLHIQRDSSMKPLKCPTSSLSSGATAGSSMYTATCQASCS
Type: cell-based
Method: Human GIP Receptor (GIP R) and GLP-1 Receptor (GLP-1 R) Activity Assay
In vitro effects of peptide conjugates of the invention were assessed by measuring the induction of cAMP following stimulation of the respective receptor by GIP, GLP1 or analogues of these, as outlined in the invention, using the AlphaSceen® cAMP kit from Perkin-Elmer according to instructions. Briefly. HEK293 cells expressing the human GIP R or GLP-1 R (stable cell lines generated through transfection of the cDNA for human GIP R or GLP-1 and selection of stable clones) were seeded at 30,000 cells/well in 96-well microtiter plates coated with 0.01% poly-L-lysine, and grown for 1 day in culture in 200 μl growth medium (DMEM, 10% FCS, Penicillin (100 IU/ml), Streptomycin (100 μg/ml)). On the day of analysis, growth medium was removed and the cells were washed once with […] Tyrode's buffer (Tyrode's Salts (9.6 g/1), 10 mM HEPES, pH 7.4). […] The Assay buffer was removed and cells are lysed in 80 μl Lysis buffer (0.1% w/v BSA, 5 mM HEPES, 0.3% v/v Tween-20) per well. From each well 10 μl lysed cells was transferred to a 384-well plate and mixed with 15 μl bead-mix (1 Unit/15 μl anti-cAMP Acceptor Beads, 1 Unit/15 μl Donor Beads, and 1 Unit/15 μl Biotinylated cAMP in Assay Buffer). The plates were mixed and incubated in the dark for an hour at room temperature before measuring using an Envision™ plate reader (Perkin-Elmer).

Compound | EC50 [nM]
CC[C@H](C)[C@H](NC(=O)[C@H](CO)NC(=O)[C@H](Cc1ccc(O)cc1)NC(=O)[C@H](CC(=O)O)NC(=O)[C@H](CO)NC(=O)[C@@H](NC(=O)[C@H](Cc1ccccc1)NC(=O)[C@@H](NC(=O)CNC(=O)[C@H](CCC(=O)O)NC(=O)C(C)(C)NC(=O)[C@@H](N)Cc1ccc(O)cc1)[C@@H](C)O)[C@@H](C)O)C(=O)N[C@@H](Cc1ccc(O)cc1)C(=O)N[C@@H](CC(C)C)C(=O)N[C@@H](CC(=O)O)C(=O)N[C@@H](CCCCN)C(=O)N[C@@H](CCCCN)C(=O)N[C@@H](C)C(=O)N[C@@H](CCC(N)=O)C(=O)N[C@@H](CCCNC(=N)N)C(=O)N[C@@H](C)C(=O)N[C@@H](Cc1ccccc1)C(=O)N[C@H](C(=O)N[C@@H](CC(N)=O)C(=O)N[C@@H](Cc1c[nH]c2ccccc12)C(=O)N[C@@H](CC(C)C)C(=O)N[C@@H](CCCCN)C(=O)N[C@@H](C)C(=O)NC(C)(C)C(=O)N[C@@H](CCCCN)C(N)=O)C(C)C [Compound 23] (H-Y[Aib]EGTFTSDYSIYLDKKAQRAFVNWLKA[Aib]K-NH2) | 0.012
CC[C@H](C)[C@H](NC(=O)[C@H](CO)NC(=O)[C@H](Cc1ccc(O)cc1)NC(=O)[C@H](CC(=O)O)NC(=O)[C@H](CO)NC(=O)[C@@H](NC(=O)[C@H](Cc1ccccc1)NC(=O)[C@@H](NC(=O)CNC(=O)[C@H](CCC(=O)O)NC(=O)C(C)(C)NC(=O)[C@@H](N)Cc1ccc(O)cc1)[C@@H](C)O)[C@@H](C)O)C(=O)N[C@@H](C)C(=O)N[C@@H](CC(C)C)C(=O)N[C@@H](CCC(=O)O)C(=O)N[C@@H](CCCCN)C(=O)N[C@@H](CCCCN)C(=O)N[C@@H](C)C(=O)N[C@@H](CCC(N)=O)C(=O)N[C@@H](CCCNC(=N)N)C(=O)N[C@@H](C)C(=O)N[C@@H](Cc1ccccc1)C(=O)N[C@H](C(=O)N[C@@H](CC(N)=O)C(=O)N[C@@H](Cc1c[nH]c2ccccc12)C(=O)N[C@@H](CC(C)C)C(=O)N[C@@H](CC(C)C)C(=O)N[C@@H](C)C(=O)NC(C)(C)C(=O)N[C@@H](CCCCN)C(N)=O)C(C)C [Compound 15] (H-Y[Aib]EGTFTSDYSIALEKKAQRAFVNWLLA[Aib]K-NH2) | 0.01
CCCCCCCCCCCCCCCC(=O)N[C@@H](CCC(=O)NCCCC[C@H](NC(=O)[C@H](CCCCN)NC(=O)[C@H](CC(=O)O)NC(=O)[C@H](CC(C)C)NC(=O)[C@H](Cc1ccc(O)cc1)NC(=O)[C@@H](NC(=O)[C@H](CO)NC(=O)[C@H](Cc1ccc(O)cc1)NC(=O)[C@H](CC(=O)O)NC(=O)[C@H](CO)NC(=O)[C@@H](NC(=O)[C@H](Cc1ccccc1)NC(=O)[C@@H](NC(=O)CNC(=O)[C@H](CCC(=O)O)NC(=O)C(C)(C)NC(=O)[C@@H](N)Cc1ccc(O)cc1)[C@@H](C)O)[C@@H](C)O)[C@@H](C)CC)C(=O)N[C@@H](C)C(=O)N[C@@H](CCC(N)=O)C(=O)N[C@@H](CCCNC(=N)N)C(=O)N[C@@H](C)C(=O)N[C@@H](Cc1ccccc1)C(=O)N[C@H](C(=O)N[C@@H](CC(N)=O)C(=O)N[C@@H](Cc1c[nH]c2ccccc12)C(=O)N[C@@H](CC(C)C)C(=O)N[C@@H](CC(C)C)C(=O)N[C@@H](C)C(=O)NC(C)(C)C(=O)N[C@@H](CCCCN)C(=O)N1CCC[C@H]1C(=O)N[C@@H](CO)C(=O)N[C@@H](CO)C(=O)NCC(=O)N[C@@H](C)C(=O)N1CCC[C@H]1C(=O)N1CCC[C@H]1C(=O)N1CCC[C@H]1C(=O)N[C@@H](CO)C(N)=O)C(C)C)C(=O)O [Compound 35] | 0.022
CC[C@H](C)[C@H](NC(=O)[C@H](CO)NC(=O)[C@H](Cc1ccc(O)cc1)NC(=O)[C@H](CC(=O)O)NC(=O)[C@H](CO)NC(=O)[C@@H](NC(=O)[C@H](Cc1ccccc1)NC(=O)[C@@H](NC(=O)CNC(=O)[C@H](CCC(=O)O)NC(=O)C(C)(C)NC(=O)[C@@H](N)Cc1ccc(O)cc1)[C@@H](C)O)[C@@H](C)O)C(=O)N[C@@H](C)C(=O)N[C@@H](CC(C)C)C(=O)N[C@@H](CC(=O)O)C(=O)N[C@@H](CCCCN)C(=O)N[C@@H](CCCCN)C(=O)N[C@@H](C)C(=O)N[C@@H](CCC(N)=O)C(=O)N[C@@H](CCCNC(=N)N)C(=O)N[C@@H](C)C(=O)N[C@@H](Cc1ccccc1)C(=O)N[C@H](C(=O)N[C@@H](CC(N)=O)C(=O)N[C@@H](Cc1c[nH]c2ccccc12)C(=O)N[C@@H](CC(C)C)C(=O)N[C@@H](CC(C)C)C(=O)N[C@@H](C)C(=O)NC(C)(C)C(=O)N[C@@H](CCCCN)C(N)=O)C(C)C [Compound 12] (H-Y[Aib]EGTFTSDYSIALDKKAQRAFVNWLLA[Aib]K-NH2) | 0.01

Now from value to compound:

EC50 [nM] | Compound
0.022 | CC[C@H](C)[C@H](NC(=O)[C@H](CO)NC(=O)[C@H](Cc1ccc(O)cc1)NC(=O)[C@H](CC(=O)O)NC(=O)[C@H](CO)NC(=O)[C@@H](NC(=O)[C@H](Cc1ccccc1)NC(=O)[C@@H](NC(=O)CNC(=O)[C@H](CCC(=O)O)NC(=O)C(C)(C)NC(=O)[C@@H](N)Cc1ccc(O)cc1)[C@@H](C)O)[C@@H](C)O)C(=O)N[C@@H](Cc1ccc(O)cc1)C(=O)N[C@@H](CC(C)C)C(=O)N[C@@H](CC(=O)O)C(=O)N[C@@H](CCC(=O)O)C(=O)N[C@@H](CCCCN)C(=O)N[C@@H](C)C(=O)N[C@@H](C)C(=O)N[C@@H](CCCCN)C(=O)N[C@@H](CC(=O)O)C(=O)N[C@@H](Cc1ccccc1)C(=O)N[C@H](C(=O)N[C@@H](CCC(=O)O)C(=O)N[C@@H](Cc1c[nH]c2ccccc12)C(=O)N[C@@H](CC(C)C)C(=O)N[C@@H](CC(C)C)C(=O)N[C@@H](CO)C(=O)N[C@@H](C)C(N)=O)C(C)C [Compound 40] (H-Y[Aib]EGTFTSDYSIYLDEKAAKDFVEWLLSA-NH2)
0.011 | CC[C@H](C)[C@H](NC(=O)[C@H](CO)NC(=O)[C@H](Cc1ccc(O)cc1)NC(=O)[C@H](CC(=O)O)NC(=O)[C@H](CO)NC(=O)[C@@H](NC(=O)[C@H](Cc1ccccc1)NC(=O)[C@@H](NC(=O)CNC(=O)[C@H](CCC(=O)O)NC(=O)C(C)(C)NC(=O)[C@@H](N)Cc1ccc(O)cc1)[C@@H](C)O)[C@@H](C)O)C(=O)N[C@@H](Cc1ccc(O)cc1)C(=O)N[C@@H](CC(C)C)C(=O)N[C@@H](CCC(=O)O)C(=O)N[C@@H](CO)C(=O)N[C@@H](CCCCN)C(=O)N[C@@H](C)C(=O)N[C@@H](C)C(=O)N[C@@H](Cc1c[nH]cn1)C(=O)N[C@@H](CC(=O)O)C(=O)N[C@@H](Cc1ccccc1)C(=O)N[C@H](C(=O)N[C@@H](CCC(=O)O)C(=O)N[C@@H](Cc1c[nH]c2ccccc12)C(=O)N[C@@H](CC(C)C)C(=O)N[C@@H](CC(C)C)C(=O)N[C@@H](CO)C(=O)N[C@@H](C)C(N)=O)C(C)C [Compound 41] (H-Y[Aib]EGTFTSDYSIYLESKAAHDFVEWLLSA-NH2)
0.11 | CCCCCCCCCCCCCCCC(=O)N[C@@H](CCC(=O)NCCCC[C@H](NC(=O)[C@H](CO)NC(=O)[C@H](CC(=O)O)NC(=O)[C@H](CC(C)C)NC(=O)[C@H](Cc1ccc(O)cc1)NC(=O)[C@H](CCCCN)NC(=O)[C@H](CO)NC(=O)[C@H](Cc1ccc(O)cc1)NC(=O)[C@H](CC(=O)O)NC(=O)[C@H](CO)NC(=O)[C@@H](NC(=O)[C@H](Cc1ccccc1)NC(=O)[C@@H](NC(=O)CNC(=O)[C@H](CCC(=O)O)NC(=O)C(C)(C)NC(=O)[C@@H](N)Cc1ccc(O)cc1)[C@@H](C)O)[C@@H](C)O)C(=O)N[C@@H](C)C(=O)N[C@@H](C)C(=O)N[C@@H](Cc1c[nH]cn1)C(=O)N[C@@H](CC(=O)O)C(=O)N[C@@H](Cc1ccccc1)C(=O)N[C@H](C(=O)N[C@@H](CCC(=O)O)C(=O)N[C@@H](Cc1c[nH]c2ccccc12)C(=O)N[C@@H](CC(C)C)C(=O)N[C@@H](CC(C)C)C(=O)N[C@@H](CO)C(=O)N[C@@H](C)C(N)=O)C(C)C)C(=O)O [Compound 45] (H-Y[Aib]EGTFTSDYSKYLDSK([γGlu-Palmitoyl])AAHDFVEWLLSA-NH2)
0.041 | CCCCCCCCCCCCCCCC(=O)N[C@@H](CCC(=O)NCCCC[C@H](NC(=O)[C@H](CCC(=O)O)NC(=O)[C@H](CC(=O)O)NC(=O)[C@H](CC(C)C)NC(=O)[C@H](Cc1ccc(O)cc1)NC(=O)[C@@H](NC(=O)[C@H](CO)NC(=O)[C@H](Cc1ccc(O)cc1)NC(=O)[C@H](CC(=O)O)NC(=O)[C@H](CO)NC(=O)[C@@H](NC(=O)[C@H](Cc1ccccc1)NC(=O)[C@@H](NC(=O)CNC(=O)[C@H](CCC(=O)O)NC(=O)C(C)(C)NC(=O)[C@@H](N)Cc1ccc(O)cc1)[C@@H](C)O)[C@@H](C)O)[C@@H](C)CC)C(=O)N[C@@H](C)C(=O)N[C@@H](C)C(=O)N[C@@H](CCCCN)C(=O)N[C@@H](CC(=O)O)C(=O)N[C@@H](Cc1ccccc1)C(=O)N[C@H](C(=O)N[C@@H](CCC(=O)O)C(=O)N[C@@H](Cc1c[nH]c2ccccc12)C(=O)N[C@@H](CC(C)C)C(=O)N[C@@H](CCC(=O)O)C(=O)N[C@@H](CO)C(=O)N[C@@H](C)C(N)=O)C(C)C)C(=O)O [Compound 48] (H-Y[Aib]EGTFTSDYSIYLDEK([γGlu-Palmitoyl])AAKDFVEWLESA-NH2)
